Like-named read-outs stand apart in the source and are kept apart here.

The target in one series is T1, α2A-adrenergic receptor (Homo sapiens, UniProt P08913).
T1 sequence (P08913 1-465): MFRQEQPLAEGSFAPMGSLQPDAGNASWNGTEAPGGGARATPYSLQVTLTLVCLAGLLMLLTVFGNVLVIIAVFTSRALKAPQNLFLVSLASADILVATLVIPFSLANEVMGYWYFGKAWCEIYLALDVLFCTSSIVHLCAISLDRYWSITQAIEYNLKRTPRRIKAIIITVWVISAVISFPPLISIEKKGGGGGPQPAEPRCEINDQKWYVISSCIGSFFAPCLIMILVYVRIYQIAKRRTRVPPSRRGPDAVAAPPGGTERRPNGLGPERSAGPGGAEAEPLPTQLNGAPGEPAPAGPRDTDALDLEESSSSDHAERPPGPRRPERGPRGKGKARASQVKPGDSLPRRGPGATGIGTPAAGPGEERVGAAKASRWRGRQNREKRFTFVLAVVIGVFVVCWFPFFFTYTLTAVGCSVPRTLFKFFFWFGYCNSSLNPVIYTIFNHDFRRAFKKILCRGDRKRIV
Particulars: for down regulation of alpha 2A receptor (receptor density): binding studies, result in words; for Percent of B max Decrease: 24 hours, HEK 293T cells stably transfected with α2A-adrenergic receptor. The method, then: Human embryonic kidney (HEK) 293T cells stably transfected with the α2A-adrenergic receptor were grown to 50-60% confluency on T-175 culture flasks in DMEM (Gibco, cat. #11995), 10% FBS (Gibco, cat. #16140), 0.25 μg/ml puromycin (Sigma, cat. # P-8833), and 1% antibiotic-antimycotic (Gibco, cat. #15240) maintained at 37° C. and 5% CO2. […] The cells were then washed with room temperature Dulbecco's phosphate buffered saline (DPBS; Gibco, cat. #14190).
Cells were harvested with 4° C. Tris-EDTA buffer [50 mM Tris-HCl, 5 mM EDTA; pH 7.4] and centrifuged at 5,000×g for 5 minutes at 4° C. Membrane preparation was conducted by resuspending the cell pellets in 4° C. Tris-EDTA buffer and lysed with a Polytron disrupter two times (setting 7, 5 seconds each). The lysed suspension was then centrifuged at […] for 32 minutes at 4° C. After decanting the supernatant, the pelleted material was further lysed in 4° C. Tris buffer [50 mM Tris-HCl; pH 8.0] using the Polytron disrupter (setting 4, 5 seconds). Membranes were then aliquoted, pelleted at […] for 32 minutes at 4° C., and stored at −80° C. until use.
Membranes were thawed and resuspended using a Polytron disrupter in 4° C. HBSS-HEPES buffer [1 part 1M HEPES: 5 parts 10× Hank's Balanced Salt Solution: 43.8 parts H2O; pH 7.4 with KOH) and quantified via Bradford assay. The quantified protein was further diluted with HBSS-HEPES buffer to achieve a 100 μg/ml concentration. Membrane suspension was plated in a 96-well plate at 200 IμLs/well±10 μM phentolamine HCl (Sigma, cat. # P-7547) and [Methyl-^3H] Rauwolscine (15 nM to 0.05 nM; PerkinElmer, cat. # NET722250UC). The assay plate was slowly shaken and incubated at 25° C. for ninety minutes. Immediately following the above incubation, the assays were terminated by vacuum filtration over GF/B filters. Filters were then washed with 4° C. HBSS-HEPES buffer. The incorporated [Methyl-^3H] Rauwolscine was determined using a Microbeta 1450B liquid scintillation counter after the plates had dried overnight.

The target of a further series is T2, alpha 2A receptor (Homo sapiens, UniProt P08913).
T2 sequence (P08913 1-465): T1 sequence (P08913 1-465)
The experiment in a line: biochemical. The note with it: for Relative Efficacy: efficacy relative to the full agonist brimonidine (1.0). The method, then: In the GTPase assay, receptor activation results in dissociation of GDP and binding of the nonhydrolyzable [^35S]GTPyS to receptor-coupled G-proteins. The extent of binding is a measure of receptor activation. Membranes were prepared from HEK cells transiently expressing the alpha 2A receptor and the three subunits of the Gi G-protein. Membranes were thawed and resuspended using a Polytron disrupter in 4° C. membrane buffer and quantified via Bradford assay. The quantified protein was then added to reaction buffer [50 mM Tris-HCl, 100 mM NaCl, 5 mM MgCl2, 1 mM DTT, 1 mM EDTA, 3 μM propranolol, and 0.1 mM AMP; pH 7.4 and 4° C. to achieve a 100 μg/ml concentration, allowed to incubate for 15 minutes, and then incubated for an additional 10 minutes in the presence of 6 μM GDP. The above mixture was then aliquoted, 50 μL/well, in a 96 well plate, combined with an equal volume of test compound dissolved in assay buffer [50 mM Tris-HCl, 100 mM NaCl, 5 mM MgCl2, 1 mM EDTA, and 1 mM DTT, pH 7.4 and 4° C.], and allowed to incubate for 5 minutes. Immediately following the above incubation, the mixture was combined with 50 μL of 1.5 nM [^35S]GTPyS in assay buffer and shaken covered for 60 minutes at 25° C. Assays were terminated by vacuum filtration over GF/B filters blocked with 0.5% BSA. Filters were then washed with 4° C. wash buffer [50 mM Tris-HCl, 100 mM NaCl, and 5 mM MgCl2, pH 7.5. The incorporated [^35S]GTPyS was determined using a Microbeta 1450B liquid scintillation counter after the plates had dried overnight.

Series [1] has as its system blue light model of retinal degeneration in rats. Kind of series: blue light model of retinal degeneration, retinal thickness by OCT. Particulars: 1 mg/kg/day subcutaneous infusion from two days before 4 hours blue light, OCT at 7 days post exposure, versus saline. The series is classed as in vivo, Sprague Dawley rats. The method, then: (§1) Drugs were administered continuously with subcutaneous infusion pumps at a dose of 1 mg/kg/day starting two days before blue light exposure. These concentrations result in drug levels in the retina of 2.3 ng/g OH-dexmedetomidine which are sufficient for pharmacological activity. Twenty 4-month old male Sprague Dawley rats (body weight 470-550 g) were used in this study. The animals were exposed to room light on a 12 hour light/12 hour dark cycle before the experiment. All animals were dark adapted overnight (16-20 hours) before blue light. Under the intensity of 6100-6500 lux, rats were exposed to blue light for 4 hours. After the blue light, rats were placed in the dark for another 3 days before returning to normal 12 hour light/12 hour dark. Ocular Coherence Tomography (OCT) measurement was performed at 7 days post blue light exposure. […] Histology studies have shown that the reduction in retinal thickness is attributable to loss of photoreceptors.

The nature of series [2]: drug level in the retina under continuous subcutaneous infusion. Particulars: rats, continuous subcutaneous infusion pumps, 1 mg/kg/day. The series is classed as in vivo, Sprague Dawley rats. The method, then: as §1

For `Brc1c(N=C2NCCN2)ccc2nccnc12` [brimonidine, (5-bromo-quinoxalin-6-yl)-imidazolidin-2-ylidene-amine, reference compound], the “down regulation of alpha 2A receptor (receptor density)” value at α2A-adrenergic receptor is “strong reduction in the alpha 2A receptor density”. Further, the “Percent of B max Decrease” value is on record as −45% on α2A-adrenergic receptor (compound concentration 1 μM) and −60% at α2A-adrenergic receptor (compound concentration 10 μM).
As a reminder, the EC50 is the midpoint of the concentration-response curve. The compound `Cc1c(CO)cccc1[C@H](C)c1c[nH]cn1` [OH-dexmedetomidine, (S) [3-(1-(1H-imidazol-4-yl)ethyl)-2-methylphenyl] methanol] gave an EC50 at alpha 2A receptor of 45 nM. The “Relative Efficacy” value at alpha 2A receptor amounted to 0.65. Moreover, the “down regulation of alpha 2A receptor (receptor density)” value at α2A-adrenergic receptor was “very little down regulation of alpha 2A receptor”. For the same compound, the “Percent of B max Decrease” value is recorded as −25% at α2A-adrenergic receptor (compound concentration 1 μM) and −14% at α2A-adrenergic receptor (compound concentration 10 μM). Also, the “damage caused by blue light (reduction of retinal thickness measured by OCT)” value in series [1] is listed as “significantly reduced the damage caused by blue light”; in series [1] (listed as (S) [3-(1-(1H-imidazol-4-yl)ethyl)-2-methylphenyl] methanol) it was “reduced the damage caused by blue light”. The “drug levels in the retina” value in series [2] is given as 2.3 ng/g.
On to `Cc1c(CO)cccc1C(C)c1c[nH]cn1` (racemic) [OH-medetomidine, [3-(1-(1H-imidazol-4-yl)ethyl)-2-methylphenyl] methanol, reference compound], for which, on alpha 2A receptor, the midpoint of the response, the EC50, lay at 20 nM and the “Relative Efficacy” value was 0.26.

The values are drawn from patent publication US11331306B2, “Pharmaceutical compositions comprising 4-[1-(2,3-dimethylphenyl)ethyl]-3H-imidazole derivatives for treating retinal diseases” (Allergan, Inc., priority 2011, dated 2022).
